Test results published in patent publication US9422240B2, “Partially saturated nitrogen-containing heterocyclic compound” (TAISHO PHARMACEUTICAL CO., LTD, priority 2012, dated 2016).

Legend:
[1] = target: T1, human PHD2 (Homo sapiens (Human), UniProt Q9GZT9); experiment: Test 2: human PHD2 inhibitory activity, fluorescence polarization assay of HIF-1α peptide proline hydroxylation; assay type: biochemical; conditions: for inhibition at 1 µM: test compound's concentration 1 μM, Test 2, fluorescence polarization assay, read-out: Percent inhibition (% at 1 μM); for IC50: human PHD2, fluorescence polarization assay, 20-min incubation at 30° C.
T1 sequence (Q9GZT9 whole entry): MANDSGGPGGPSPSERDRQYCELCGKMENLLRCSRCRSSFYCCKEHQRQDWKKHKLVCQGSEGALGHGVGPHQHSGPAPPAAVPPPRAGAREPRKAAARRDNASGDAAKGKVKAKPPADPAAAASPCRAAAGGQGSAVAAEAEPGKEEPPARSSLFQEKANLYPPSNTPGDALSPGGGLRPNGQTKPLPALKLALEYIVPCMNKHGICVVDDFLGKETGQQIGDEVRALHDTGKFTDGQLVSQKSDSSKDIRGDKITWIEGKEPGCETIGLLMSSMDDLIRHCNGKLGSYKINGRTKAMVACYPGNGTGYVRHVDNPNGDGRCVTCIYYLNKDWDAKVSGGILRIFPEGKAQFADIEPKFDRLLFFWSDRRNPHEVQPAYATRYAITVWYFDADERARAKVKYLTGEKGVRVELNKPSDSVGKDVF
Method in brief: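 Enzyme from lysate of cells expressing human PHD2 (NM_022051), 40 ng/well, added to compound and 19-residue HIF-1α peptide substrate; 20 min at 30° C., EDTA quench. Prolyl hydroxylation detected by HIF-OH antibody binding via fluorescence polarization; inhibition relative to compound-free wells.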

[2] = target: T1, human PHD2; experiment: Test 1: human PHD2 inhibitory activity, [14C]-2-oxoglutarate to [14C]-succinic acid radiometric assay with HIF-1α peptide; assay type: biochemical; conditions: test compound's concentration 1 μM; Test 1, [14C]-2-oxoglutarate radiometric assay; read-out: Percent inhibition (% at 1 μM)
Method in brief: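 Lysate from HighFive insect cells expressing human PHD2 (4 μg/well) was incubated for 15 min at 37° C with a 19-residue HIF-1α peptide and [14C]-2-oxoglutarate. Unreacted 2-oxoglutarate was precipitated with DNPH and filtered off, and [14C]-succinic acid was counted. Inhibition was calculated relative to substrate-free and compound-free controls.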

| Compound | inhibition at 1 µM [1] [%] | inhibition at 1 µM [2] [%] | IC50 [1] [nM] |
| --- | --- | --- | --- |
| CC1(C)CC(O)=C(C(=O)NCC(=O)O)C(=O)N1Cc1ccc(OCC2CC2)cc1 [Ex. 1-198] | 79 | 70 |  |
| Cc1cc(CN2C(=O)C(C(=O)NCC(=O)O)=C(O)CC2(C)C)ccc1OCC1CC1 [Ex. 1-199] | 75 | 65 |  |
| O=C(O)CNC(=O)C1=C(O)C2(CC2)CN(Cc2ccc(-c3ccccc3)cc2)C1=O [Ex. 1-200] | 99 | 98 |  |
| CC1(C)CC(O)=C(C(=O)NCC(=O)O)C(=O)N1Cc1ccc(OCCCC(F)(F)F)c(F)c1 [Ex. 1-201] | 73 | 67 |  |
| Cc1ccc(CN2C(=O)C(C(=O)NCC(=O)O)=C(O)CC2(C)C)cc1Cl [Ex. 1-202] | 69 | 58 |  |
| CC1(C)CC(O)=C(C(=O)NCC(=O)O)C(=O)N1Cc1ccc(C2CC2)cc1 [Ex. 1-203] | 69 | 61 |  |
| CC1(C)CC(O)=C(C(=O)NCC(=O)O)C(=O)N1Cc1ccc(OCC2CC2)c(F)c1 [Ex. 1-204] | 79 | 69 |  |
| Cc1ccc(Oc2ccc(CN3C(=O)C(C(=O)NCC(=O)O)=C(O)CC3(C)C)cn2)cc1 [Ex. 1-206] | 93 | 95 |  |
| O=C(O)CNC(=O)C1=C(O)C2(CC2)CN(Cc2ccc(Br)cc2)C1=O [Ex. 1-207] | 93 | 92 |  |
| O=C(O)CNC(=O)C1=C(O)C2(CC2)CN(Cc2ccc(OC(F)(F)F)cc2)C1=O [Ex. 1-208] | 85 | 90 |  |
| CC1CC(O)=C(C(=O)NCC(=O)O)C(=O)N1C1(c2ccc(C(F)(F)F)cc2)CC1 (stereo not drawn) [Ex. 1-210] | 42 | 59 |  |
| CC1(C)CC(O)=C(C(=O)NCC(=O)O)C(=O)N1Cc1ccc(C2CCC2)cc1 [Ex. 1-211] | 79 | 76 |  |
| O=C(O)CNC(=O)C1=C(O)CCN(Cc2ccc(C3CC3)c(C(F)(F)F)c2)C1=O [Ex. 1-212] | 85 | 82 |  |
| CC1(C)CC(O)=C(C(=O)NCC(=O)O)C(=O)N1Cc1cc(-c2ccc(Cl)cc2)no1 [Ex. 1-213] | 88 | 88 |  |
| O=C(O)CNC(=O)C1=C(O)C2(CC2)CN(Cc2ccc(C3CC3)cc2)C1=O [Ex. 1-214] | 90 | 89 |  |
| O=C(O)CNC(=O)C1=C(O)C2(CC2)CN(Cc2ccc(Cl)cc2)C1=O [Ex. 1-215] | 86 | 85 |  |
| CC1(C)CC(O)=C(C(=O)NCC(=O)O)C(=O)N1Cc1cc(-c2ccc(Cl)cc2)on1 [Ex. 1-216] | 73 | 75 |  |
| CC1(C)CC(O)=C(C(=O)NCC(=O)O)C(=O)N1CC1CC(c2ccccc2)C1 (stereo not drawn) [Ex. 1-217] | 60 | 52 |  |
| CC1(C)CC(O)=C(C(=O)NCC(=O)O)C(=O)N1C[C@H]1C[C@@H](c2ccccc2)C1 [Ex. 1-218] | 62 | 52 |  |
| O=C(O)CNC(=O)C1=C(O)CCN(C2(c3ccc(-c4ccccc4)cc3)CC2)C1=O [Ex. 1-219] | 88 | 69 |  |

| Compound | inhibition at 1 µM [1] [%] | inhibition at 1 µM [2] [%] | IC50 [1] [nM] |
| --- | --- | --- | --- |
| O=C(O)CNC(=O)C1=C(O)CCN(C2CCC(Cc3ccccc3)CC2)C1=O (stereo not drawn) [Ex. 1-220] | 82 | 72 |  |
| CC1(C)CC(O)=C(C(=O)NCC(=O)O)C(=O)N1Cc1ccc(OCC(F)(F)F)cc1 [Ex. 1-221] | 73 | 66 |  |
| O=C(O)CNC(=O)C1=C(O)CCN(Cc2ccc(OCC(F)(F)F)c(Cl)c2)C1=O [Ex. 1-222] | 89 | 90 |  |
| O=C(O)CNC(=O)C1=C(O)CC2(CC2)N(Cc2ccc(-c3ccccc3)cc2)C1=O [Ex. 1-223] | 96 | 90 |  |
| O=C(O)CNC(=O)C1=C(O)CC2(CC2)N(Cc2ccc(C(F)(F)F)cc2)C1=O [Ex. 1-224] | 90 | 80 |  |
| N#Cc1ccc(Oc2ccc(CN3CCC(O)=C(C(=O)NCC(=O)O)C3=O)cn2)cc1 [Ex. 1-225] | 98 | 100 | 40 |
| CCCOc1ccc(CN2C(=O)C(C(=O)NCC(=O)O)=C(O)CC2(C)C)cc1 [Ex. 1-227] | 75 | 76 |  |
| CC(C)Oc1ccc(CN2C(=O)C(C(=O)NCC(=O)O)=C(O)CC2(C)C)cc1 [Ex. 1-228] | 64 | 71 |  |
| CC1(C)CC(O)=C(C(=O)NCC(=O)O)C(=O)N1C[C@H]1C[C@@H]1c1ccccc1 [Ex. 1-229] | 60 | 74 |  |
| CC(c1ccc(-c2ccccc2)cc1)N1CCC(O)=C(C(=O)NCC(=O)O)C1=O (stereo not drawn) [Ex. 1-230] | 95 | 96 |  |
| CC(C)(c1ccc(C(F)(F)F)cc1)N1CCC(O)=C(C(=O)NCC(=O)O)C1=O [Ex. 1-231] | 44 | 65 |  |
| CC(C)(C)COCc1ccc(CN2CCC(O)=C(C(=O)NCC(=O)O)C2=O)cc1 [Ex. 1-232] | 91 | 89 |  |
| CC1(COCc2ccc(CN3CCC(O)=C(C(=O)NCC(=O)O)C3=O)cc2)CC1 [Ex. 1-233] | 93 | 91 |  |
| CCOc1ccc(CN2C(=O)C(C(=O)NCC(=O)O)=C(O)CC2(C)C)cc1 [Ex. 1-234] | 62 | 61 |  |
| O=C(O)CNC(=O)C1=C(O)CC2(CCC2)N(Cc2ccc(C3CC3)cc2)C1=O [Ex. 1-236] | 87 | 84 |  |
| O=C(O)CNC(=O)C1=C(O)C2(CCC2)CN(Cc2ccc(C3CC3)cc2)C1=O [Ex. 1-237] | 84 | 74 |  |
| O=C(O)CNC(=O)C1=C(O)CCN(Cc2ccc(OCC3CCC3)cc2)C1=O [Ex. 1-238] | 99 | 92 |  |
| CC1(C)CC(O)=C(C(=O)NCC(=O)O)C(=O)N1Cc1ccc(OCC2CCC2)cc1 [Ex. 1-239] | 87 | 74 |  |
| O=C(O)CNC(=O)C1=C(O)CCN(Cc2ccc(OCc3ccccc3)cc2)C1=O [Ex. 1-240] | 97 | 91 |  |
| O=C(O)CNC(=O)C1=C(O)CCN(Cc2ccc(OCc3ccc(F)cc3)cc2)C1=O [Ex. 1-241] | 101 | 97 |  |

| Compound | inhibition at 1 µM [1] [%] | inhibition at 1 µM [2] [%] | IC50 [1] [nM] |
| --- | --- | --- | --- |
| O=C(O)CNC(=O)C1=C(O)CCN(Cc2ccc(OCc3ccc(Cl)cc3)cc2)C1=O [Ex. 1-242] | 101 | 100 |  |
| O=C(O)CNC(=O)C1=C(O)CCN(Cc2ccc(C3CCC3)c(C(F)(F)F)c2)C1=O [Ex. 1-243] | 92 | 76 |  |
| CC1(C)CC(O)=C(C(=O)NCC(=O)O)C(=O)N1C[C@@H]1C[C@@H]1c1ccccc1 [Ex. 1-244] | 50 | 47 |  |
| O=C(O)CNC(=O)C1=C(O)CCN(Cc2ccc(C(F)(F)F)c(C3CCC3)c2)C1=O [Ex. 1-245] | 78 | 80 |  |
| CC1(C)CC(O)=C(C(=O)NCC(=O)O)C(=O)N1Cc1ccc(OCCC2CC2)cc1 [Ex. 1-247] | 82 | 81 |  |
| O=C(O)CNC(=O)C1=C(O)CCN(Cc2ccc(CCC3CC3)cc2)C1=O [Ex. 1-249] | 94 | 103 |  |
| O=C(O)CNC(=O)C1=C(O)C2(CCC2)CN(Cc2ccc(OCC3CC3)cc2)C1=O [Ex. 1-250] | 81 | 80 |  |
| O=C(O)CNC(=O)C1=C(O)CC2(CC2)N(Cc2ccc(OCC3CC3)cc2)C1=O [Ex. 1-251] | 83 | 90 |  |
| O=C(O)CNC(=O)C1=C(O)CCN(Cc2ccc(Oc3ccc(F)cc3)nc2)C1=O [Ex. 1-252] | 98 | 104 | 87 |
| O=C(O)CNC(=O)C1=C(O)CC2(CCCCC2)N(Cc2ccccc2)C1=O [Ex. 1-253] | 49 | 45 |  |
| O=C(O)CNC(=O)C1=C(O)CCN(Cc2ccc(Oc3ccc(C(F)(F)F)cc3)nc2)C1=O [Ex. 1-254] | 96 | 103 | 24 |
| Cc1cccc(Oc2ccc(CN3CCC(O)=C(C(=O)NCC(=O)O)C3=O)cn2)c1 [Ex. 1-255] | 90 | 99 | 66 |
| O=C(O)CNC(=O)C1=C(O)CCN(Cc2ccc(Oc3cccc(F)c3)nc2)C1=O [Ex. 1-256] | 91 | 101 | 66 |
| Cc1cccc(Oc2ccc(CN3CCC(O)=C(C(=O)NCC(=O)O)C3=O)cc2)c1 [Ex. 1-257] | 89 | 95 | 75 |
| O=C(O)CNC(=O)C1=C(O)CCN(Cc2ccc(Oc3cccc(F)c3)cc2)C1=O [Ex. 1-258] | 90 | 94 | 63 |
| O=C(O)CNC(=O)C1=C(O)CCN(Cc2ccc(Oc3ccc(F)cc3)cn2)C1=O [Ex. 1-259] | 91 | 92 | 96 |
| O=C(O)CNC(=O)C1=C(O)CCN(Cc2ccc(Sc3ccc(Cl)cc3)nc2)C1=O [Ex. 1-261] | 97 | 99 |  |
| O=C(O)CNC(=O)C1=C(O)CCN(Cc2ccc(OC3CCC3)cc2)C1=O [Ex. 1-262] | 87 | 88 |  |
| Cc1ccccc1-n1ncc(CN2CCC(O)=C(C(=O)NCC(=O)O)C2=O)c1C [Ex. 1-263] | 83 | 81 |  |
